Measured values as given in patent US20200278355A1, “CONJUGATED PROTEINS AND USES THEREOF” (THE SCRIPPS RESEARCH INSTITUTE, priority 2017, published 2020).

Columns and labels:
[1] = biological target: T1, FLAG-NR0B1-C274V (Homo sapiens, UniProt P51843, C274V); test: Gel-based BPK-29yne labeling of the NR0B1-C274V mutant in HEK293T cells; assay type: cell-based; settings: 30 min, in-gel fluorescence
T1 construct: expressed in transfected cells; host or cells: HEK-293T, transient, pRK5-based vector
Experimental: (§1) 4×10^6 HEK-293T cells were seeded in poly-L-lysine coated 10 cm plates and transfected the next day with 5 μg of FLAG-NR0B1, FLAG-NR0B1-C274V, or FLAG-METAP2 cDNA in a pRK5-based expression vector. 48 h after transfection, cells were treated with indicated concentrations of BPK-29 or control compound BPK-27 for 3 h at 37° C. in DMEM containing 10% FBS and supplements as described in Cell Culture. BPK-29yne (5 μM) was then added and incubated for an additional 30 min at 37° C. FLAG immunoprecipitates were prepared as described above and following washes, the FLAG resin was resuspended in PBS (100 μL). To each sample, 12 μL of a freshly prepared “click” reagent mixture was added to conjugate the fluorophore to probe-labeled proteins. […] Samples were boiled for 5 min and proteins were resolved by SDS-PAGE (10% acrylamide), and visualized by in-gel fluorescence on a Bio-Rad ChemiDoc MP flatbed fluorescence scanner. Samples were also analyzed by immunoblotting. Recombinantly expressed FLAG-tagged protein levels were determined with the FLAG antibody (Sigma). Gel fluorescence and imaging was processed using Image Lab (v 5.2.1) software.

[2] = biological target: T2, FLAG-NR0B1 (WT) (Homo sapiens, UniProt P51843); test: Gel-based BPK-29yne labeling of NR0B1 and competition in HEK293T cells; assay type: cell-based; settings: 30 min, in-gel fluorescence
T2 construct: expressed in transfected cells; host or cells: HEK-293T, transient, pRK5-based vector
Experimental: as §1

T1 sequence (P51843 whole entry C274V): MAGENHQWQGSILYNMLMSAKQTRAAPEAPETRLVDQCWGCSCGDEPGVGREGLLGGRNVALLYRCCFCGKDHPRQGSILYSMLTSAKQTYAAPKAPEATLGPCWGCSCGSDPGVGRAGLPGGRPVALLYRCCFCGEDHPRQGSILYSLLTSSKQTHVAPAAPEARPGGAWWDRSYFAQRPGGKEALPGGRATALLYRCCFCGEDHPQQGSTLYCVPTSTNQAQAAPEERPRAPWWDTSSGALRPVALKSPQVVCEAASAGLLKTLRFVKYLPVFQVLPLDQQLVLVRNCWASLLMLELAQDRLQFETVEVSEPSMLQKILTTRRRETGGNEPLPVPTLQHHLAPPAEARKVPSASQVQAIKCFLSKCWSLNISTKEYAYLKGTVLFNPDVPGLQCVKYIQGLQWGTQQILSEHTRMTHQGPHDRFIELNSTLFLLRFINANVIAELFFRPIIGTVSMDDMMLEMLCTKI
T2 sequence (P51843 whole entry): as the sequence (P51843 whole entry C274V) above, with V274C counted along it

BPK-29yne labeling of NR0B1 C274V mutant [1]: but not a C274V mutant | BPK-29yne labeling of WT-NR0B1 [2]: labeled WT-NR0B1
Compound: C#Cc1cccc(CN(C(=O)CCl)C2CCCN(C(=O)c3ccc(N4CCOCC4)cc3)CC2)c1 (centres unmarked) [BPK-29yne, 2-chloro-N-(3-ethynylbenzyl)-N-(1-(4-morpholinobenzoyl)azepan-4-yl)acetamide]
